Data: US20250144094A1 (Erasca, Inc., priority 2021, published 2025)

Molecular target: Recombinant human ULK1 (1-649) (Homo sapiens (Human), UniProt O75385)
Test: ULK1 ADP Glo kinase activity assay, new method (ULKtide peptide substrate)
Settings: 25° C., 40 minutes, read-out: ULK1 biochemical IC50
In short: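 GST-tagged human ULK1 (1-649) from Sf9 cells was reacted with ULKtide peptide and ATP for 40 min at 25 °C across 12-point compound dilutions from 10 μM. ADP formed was quantified by ADP-Glo luminescence; IC50 came from four-parameter fits relative to DMSO controls.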

Sequence of Recombinant human ULK1 (1-649) (O75385 1-649): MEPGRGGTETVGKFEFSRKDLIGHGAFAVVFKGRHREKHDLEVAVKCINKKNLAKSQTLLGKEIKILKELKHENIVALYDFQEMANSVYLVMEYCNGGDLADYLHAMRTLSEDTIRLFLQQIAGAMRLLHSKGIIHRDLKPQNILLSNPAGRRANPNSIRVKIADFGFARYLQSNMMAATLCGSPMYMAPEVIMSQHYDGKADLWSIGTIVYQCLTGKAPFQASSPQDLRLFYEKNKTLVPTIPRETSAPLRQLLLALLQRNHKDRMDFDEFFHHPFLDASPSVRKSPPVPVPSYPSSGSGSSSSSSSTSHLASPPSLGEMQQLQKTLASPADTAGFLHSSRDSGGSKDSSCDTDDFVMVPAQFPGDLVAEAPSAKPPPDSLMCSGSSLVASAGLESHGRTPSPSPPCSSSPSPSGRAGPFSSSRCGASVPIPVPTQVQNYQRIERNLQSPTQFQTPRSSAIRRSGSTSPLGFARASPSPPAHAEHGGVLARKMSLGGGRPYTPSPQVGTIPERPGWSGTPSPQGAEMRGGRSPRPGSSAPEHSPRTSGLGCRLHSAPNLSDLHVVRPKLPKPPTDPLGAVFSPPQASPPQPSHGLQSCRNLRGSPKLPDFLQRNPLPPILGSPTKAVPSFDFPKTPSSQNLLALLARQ

Compound	IC50 [nM]
O=C1c2sc(-c3nc(Nc4cc5c(cc4OC(F)(F)F)CNCC5)ncc3C(F)(F)F)cc2S(=O)(=O)CCN1C1CC1 [Example 273, 4-cyclopropyl-7-(2-((7-(trifluoromethoxy)-1,2,3,4-tetrahydroisoquinolin-6-yl)amino)-5-(trifluoromethyl)pyrimidin-4-yl)-3,4-dihydrothieno[2,3-f][1,4]thiazepin-5(2H)-one 1,1-dioxide]	≤ 5
N#CCN1CCc2cc(Nc3ncc(C(F)(F)F)c(-c4cc5c(s4)C(=O)N(C4CC4)CCS5(=O)=O)n3)c(C3CC3)cc2C1 [Example 276, 2-(7-cyclopropyl-6-((4-(4-cyclopropyl-1,1-dioxido-5-oxo-2,3,4,5-tetrahydrothieno[2,3-f][1,4]thiazepin-7-yl)-5-(trifluoromethyl)pyrimidin-2-yl)amino)-3,4-dihydroisoquinolin-2(1H)-yl)acetonitrile]	10 to 50
N#CCN1CCc2cc(Nc3ncc(C(F)(F)F)c(-c4cc5c(s4)C(=O)N(C4COC4)CCS5(=O)=O)n3)c(C3CC3)cc2C1 [Example 285, 2-(7-cyclopropyl-6-((4-(4-(oxetan-3-yl)-1,1-dioxido-5-oxo-2,3,4,5-tetrahydrothieno[2,3-f][1,4]thiazepin-7-yl)-5-(trifluoromethyl)pyrimidin-2-yl)amino)-3,4-dihydroisoquinolin-2(1H)-yl)acetonitrile]	5 to 10
CC1(CN2CCc3cc(Nc4ncc(C(F)(F)F)c(-c5cc6c(s5)C(=O)N(C5COC5)CCS6(=O)=O)n4)c(C4CC4)cc3C2)COC1 [Example 286, 7-(2-((7-cyclopropyl-2-((3-methyloxetan-3-yl)methyl)-1,2,3,4-tetrahydroisoquinolin-6-yl)amino)-5-(trifluoromethyl)pyrimidin-4-yl)-4-(oxetan-3-yl)-3,4-dihydrothieno[2,3-f][1,4]thiazepin-5(2H)-one 1,1-dioxide]	≤ 5
CC(C)(O)CN1CCc2cc(Nc3ncc(C(F)(F)F)c(-c4cc5c(s4)C(=O)N(C4CC4)CCS5(=O)=O)n3)c(C3CC3)cc2C1 [Example 287, 4-cyclopropyl-7-(2-((7-cyclopropyl-2-(2-hydroxy-2-methylpropyl)-1,2,3,4-tetrahydroisoquinolin-6-yl)amino)-5-(trifluoromethyl)pyrimidin-4-yl)-3,4-dihydrothieno[2,3-f][1,4]thiazepin-5(2H)-one 1,1-dioxide]	≤ 5
CCc1cc(C2CCN(CC(F)(F)F)CC2)ccc1Nc1ncc(C(F)(F)F)c(-c2cc3c(s2)C(=O)N(C2CC2)CCS3(=O)=O)n1 [Example 288, 4-cyclopropyl-7-(2-((2-ethyl-4-(1-(2,2,2-trifluoroethyl)piperidin-4-yl)phenyl)amino)-5-(trifluoromethyl)pyrimidin-4-yl)-3,4-dihydrothieno[2,3-f][1,4]thiazepin-5(2H)-one 1,1-dioxide]	> 100
O=C1c2sc(-c3nc(Nc4cc5c(cc4C4CC4)CN(C4COC4)CC5)ncc3C(F)(F)F)cc2S(=O)(=O)CCN1C1CC1 [Example 289, 4-cyclopropyl-7-(2-((7-cyclopropyl-2-(oxetan-3-yl)-1,2,3,4-tetrahydroisoquinolin-6-yl)amino)-5-(trifluoromethyl)pyrimidin-4-yl)-3,4-dihydrothieno[2,3-f][1,4]thiazepin-5(2H)-one 1,1-dioxide]	5 to 10
CC(C)(O)CN1CCc2cc(Nc3ncc(C(F)(F)F)c(-c4cc5c(s4)C(=O)N(C4COC4)CCS5(=O)=O)n3)c(C3CC3)cc2C1 [Example 291, 7-(2-((7-cyclopropyl-2-(2-hydroxy-2-methylpropyl)-1,2,3,4-tetrahydroisoquinolin-6-yl)amino)-5-(trifluoromethyl)pyrimidin-4-yl)-4-(oxetan-3-yl)-3,4-dihydrothieno[2,3-f][1,4]thiazepin-5(2H)-one 1,1-dioxide]	≤ 5
O=C1c2sc(-c3nc(Nc4cc5c(cc4C4CC4)CN(C4COC4)CC5)ncc3C(F)(F)F)cc2S(=O)(=O)CCN1C1COC1 [Example 292, 7-(2-((7-cyclopropyl-2-(oxetan-3-yl)-1,2,3,4-tetrahydroisoquinolin-6-yl)amino)-5-(trifluoromethyl)pyrimidin-4-yl)-4-(oxetan-3-yl)-3,4-dihydrothieno[2,3-f][1,4]thiazepin-5(2H)-one 1,1-dioxide]	≤ 5
O=C1c2sc(-c3nc(Nc4cc5c(cc4C4CC4)CN(C4CC4)CC5)ncc3C(F)(F)F)cc2S(=O)(=O)CCN1C1CC1 [Example 293, 4-Cyclopropyl-7-(2-((2,7-dicyclopropyl-1,2,3,4-tetrahydroisoquinolin-6-yl)amino)-5-(trifluoromethyl)pyrimidin-4-yl)-3,4-dihydrothieno[2,3-f][1,4]thiazepin-5(2H)-one 1,1-dioxide]	5 to 10
CCc1cc(N2CCN(C3CC3)CC2)ccc1Nc1ncc(C(F)(F)F)c(-c2cc3c(s2)C(=O)N(C2CC2)CCS3(=O)=O)n1 [Example 294, 4-Cyclopropyl-7-(2-((4-(4-cyclopropylpiperazin-1-yl)-2-ethylphenyl)amino)-5-(trifluoromethyl)pyrimidin-4-yl)-3,4-dihydrothieno[2,3-f][1,4]thiazepin-5(2H)-one 1,1-dioxide]	≤ 5
O=S1(=O)CCNS(=O)(=O)c2sc(-c3nc(Nc4cc5c(cc4Cl)CNCC5)ncc3C(F)(F)F)cc21 [Example 295, 7-(2-((7-chloro-1,2,3,4-tetrahydroisoquinolin-6-yl)amino)-5-(trifluoromethyl)pyrimidin-4-yl)-3,4-dihydro-2H-thieno[3,2-f][1,5,2]dithiazepine 1,1,5,5-tetraoxide]	≤ 5

Further lines, results first:

IC50 [nM]	Compound
≤ 5	CCc1cc(N2CCN(CC)CC2)ccc1Nc1ncc(C(F)(F)F)c(-c2cc3c(s2)C(=O)N(C2CC2)CCS3(=O)=O)n1 [Example 271, 4-cyclopropyl-7-(2-((2-ethyl-4-(4-ethylpiperazin-1-yl)phenyl)amino)-5-(trifluoromethyl)pyrimidin-4-yl)-3,4-dihydrothieno[2,3-f][1,4]thiazepin-5(2H)-one 1,1-dioxide]
≤ 5	CCc1cc(N2CCN(C(C)C)CC2)ccc1Nc1ncc(C(F)(F)F)c(-c2cc3c(s2)C(=O)N(C2CC2)CCS3(=O)=O)n1 [Example 272, 4-cyclopropyl-7-(2-((2-ethyl-4-(4-isopropylpiperazin-1-yl)phenyl)amino)-5-(trifluoromethyl)pyrimidin-4-yl)-3,4-dihydrothieno[2,3-f][1,4]thiazepin-5(2H)-one 1,1-dioxide]
≤ 5	CCc1cc2c(cc1Nc1ncc(C(F)(F)F)c(-c3cc4c(s3)C(=O)N(C3COC3)CCS4(=O)=O)n1)CCN(CC1CC1)C2 [Example 274, 7-(2-((2-(cyclopropylmethyl)-7-ethyl-1,2,3,4-tetrahydroisoquinolin-6-yl)amino)-5-(trifluoromethyl)pyrimidin-4-yl)-4-(oxetan-3-yl)-3,4-dihydrothieno[2,3-f][1,4]thiazepin-5(2H)-one 1,1-dioxide]
≤ 5	CCc1cc2c(cc1Nc1ncc(C(F)(F)F)c(-c3cc4c(s3)C(=O)N(C3COC3)CCS4(=O)=O)n1)CCN(CC1COC1)C2 [Example 275, 7-(2-((7-ethyl-2-(oxetan-3-ylmethyl)-1,2,3,4-tetrahydroisoquinolin-6-yl)amino)-5-(trifluoromethyl)pyrimidin-4-yl)-4-(oxetan-3-yl)-3,4-dihydrothieno[2,3-f][1,4]thiazepin-5(2H)-one 1,1-dioxide]
≤ 5	CCc1cc2c(cc1Nc1ncc(C(F)(F)F)c(-c3cc4c(s3)C(=O)N(C3CC3)CCS4(=O)=O)n1)CCN(CC1COC1)C2 [Example 277, 4-cyclopropyl-7-(2-((7-ethyl-2-(oxetan-3-ylmethyl)-1,2,3,4-tetrahydroisoquinolin-6-yl)amino)-5-(trifluoromethyl)pyrimidin-4-yl)-3,4-dihydrothieno[2,3-f][1,4]thiazepin-5(2H)-one 1,1-dioxide]
≤ 5	CC1(CN2CCc3cc(Nc4ncc(C(F)(F)F)c(-c5cc6c(s5)C(=O)N(C5CC5)CCS6(=O)=O)n4)c(C4CC4)cc3C2)COC1 [Example 279, 4-cyclopropyl-7-(2-((7-cyclopropyl-2-((3-methyloxetan-3-yl)methyl)-1,2,3,4-tetrahydroisoquinolin-6-yl)amino)-5-(trifluoromethyl)pyrimidin-4-yl)-3,4-dihydrothieno[2,3-f][1,4]thiazepin-5(2H)-one 1,1-dioxide]
≤ 5	CCc1cc(N2CCN(CC(N)=O)CC2)ccc1Nc1ncc(C(F)(F)F)c(-c2cc3c(s2)C(=O)N(C2CC2)CCS3(=O)=O)n1 [Example 280, 2-(4-(4-((4-(4-cyclopropyl-1,1-dioxido-5-oxo-2,3,4,5-tetrahydrothieno[2,3-f][1,4]thiazepin-7-yl)-5-(trifluoromethyl)pyrimidin-2-yl)amino)-3-ethylphenyl)piperazin-1-yl)acetamide]
≤ 5	CCc1cc(C2CCN(CCF)CC2)ccc1Nc1ncc(C(F)(F)F)c(-c2cc3c(s2)C(=O)N(C2CC2)CCS3(=O)=O)n1 [Example 282, 4-cyclopropyl-7-(2-((2-ethyl-4-(1-(2-fluoroethyl)piperidin-4-yl)phenyl)amino)-5-(trifluoromethyl)pyrimidin-4-yl)-3,4-dihydrothieno[2,3-f][1,4]thiazepin-5(2H)-one 1,1-dioxide]
≤ 5	CN1CCS(=O)(=O)c2cc(-c3nc(Nc4cc5c(cc4Cl)CNCC5)ncc3C3CC3)sc2C1=O [Example 283, 7-(2-((7-chloro-1,2,3,4-tetrahydroisoquinolin-6-yl)amino)-5-cyclopropylpyrimidin-4-yl)-4-methyl-3,4-dihydrothieno[2,3-f][1,4]thiazepin-5(2H)-one 1,1-dioxide]
≤ 5	NC(=O)CN1CCc2cc(Nc3ncc(C(F)(F)F)c(-c4cc5c(s4)C(=O)N(C4COC4)CCS5(=O)=O)n3)c(C3CC3)cc2C1 [Example 284, 2-(7-cyclopropyl-6-((4-(4-(oxetan-3-yl)-1,1-dioxido-5-oxo-2,3,4,5-tetrahydrothieno[2,3-f][1,4]thiazepin-7-yl)-5-(trifluoromethyl)pyrimidin-2-yl)amino)-3,4-dihydroisoquinolin-2(1H)-yl)acetamide]
